Tested on: HG23 cells
Assay: cell cytotoxicity assay kit
Assay type: cell-based
Conditions: TD50

O=C(CN(Cc1ccccc1)S(=O)(=O)NCc1cccc(Oc2ccccc2)c1)NCCN1CCOCC1 [Compound 11b, 2-(Benzyl(N-(3-phenoxybenzyl)sulfamoyl)amino)-N-(2-morpholinoethyl)acetamide]
higher toxicity versus compound 11a: ~ 8 fold
